Test results taken from ChEMBL document CHEMBL1143043, “Monitoring aminoglycoside-induced conformational changes in 16S rRNA through acrylamide quenching” (Bioorg Med Chem, 2007).

Key:
[1] = Affinity to hairpin A-site 16S rRNA by Electrospray ionization mass spectrometry
[2] = Affinity to 2-aminopurine labeled hairpin A-site 16S rRNA by Electrospray ionization mass spectrometry

SMILES: NC[C@@H]1O[C@H](O[C@H]2[C@@H](O)[C@H](O[C@@H]3[C@@H](O)[C@H](N)C[C@H](N)[C@H]3O[C@H]3O[C@H](CO)[C@@H](O)[C@H](O)[C@H]3N)O[C@@H]2CO)[C@H](N)[C@@H](O)[C@@H]1O [PAROMOMYCIN]
- Kd [1]: 370 nM
- Kd [2]: 980 nM
